Where two headings read alike, the source gives them in different places.
Tests used:
[1] = molecular target: T1, N-glucosamine-6-phosphate synthase (Escherichia coli, UniProt P17169); test: Product inhibition of N-glucosamine-6-phosphate synthase, spectrophotometric assay in crude cell extracts; format: biochemical; conditions: FIG. 5; assays run with various concentrations of added product
Protocol: N-glucosamine-6-phosphate synthase activity was measured in production strains containing integrated T7-glmS cassettes after growth in LB medium with and without IPTG (Table 2). N-glucosamine-6-phosphate synthase was assayed in crude cell extracts using either […] or spectrophotometric assays (Badet et al., 1987, Biochemistry 26:1940-1948) as described below. The extracts used for those assays were prepared by suspending washed cell pellets in 5 mL of 0.1 M KH2PO4/K2HPO4, pH 7.5 per gram of wet cell paste, passing the suspension through a French press at 16,000 psi, and centrifuging the disrupted cell suspension at 35,000-40,000 ×g for 15 to 20 minutes. The supernatant was used as the source of enzyme for the assay.
In the spectrophotometric assay, 1 mL reactions containing 50 mM KH2PO4/K2HPO4, 10 mM fructose-6-phosphate, 6 mM L-glutamine, 10 mM KCl, 0.6 mM acetylpyridine adenine dinucleotide (APAD), and 50-60 Units of L-glutamic dehydrogenase (Sigma Type II from bovine liver) were run at room temperature. The activity was followed by monitoring the absorbance at 365 nm after the addition of extract and corrected for the small absorbance increase observed in the absence of extract. The activity was calculated using a molar extinction coefficient for APAD of 9100. […]

[2] = molecular target: T1, N-glucosamine-6-phosphate synthase; conditions: White 1968, Biochem. J. 106:847-858; cited from earlier work
[3] = molecular target: T1, N-glucosamine-6-phosphate synthase; conditions: substrate of the enzyme from Escherichia coli; cited from earlier work

T1 sequence (P17169 2-609): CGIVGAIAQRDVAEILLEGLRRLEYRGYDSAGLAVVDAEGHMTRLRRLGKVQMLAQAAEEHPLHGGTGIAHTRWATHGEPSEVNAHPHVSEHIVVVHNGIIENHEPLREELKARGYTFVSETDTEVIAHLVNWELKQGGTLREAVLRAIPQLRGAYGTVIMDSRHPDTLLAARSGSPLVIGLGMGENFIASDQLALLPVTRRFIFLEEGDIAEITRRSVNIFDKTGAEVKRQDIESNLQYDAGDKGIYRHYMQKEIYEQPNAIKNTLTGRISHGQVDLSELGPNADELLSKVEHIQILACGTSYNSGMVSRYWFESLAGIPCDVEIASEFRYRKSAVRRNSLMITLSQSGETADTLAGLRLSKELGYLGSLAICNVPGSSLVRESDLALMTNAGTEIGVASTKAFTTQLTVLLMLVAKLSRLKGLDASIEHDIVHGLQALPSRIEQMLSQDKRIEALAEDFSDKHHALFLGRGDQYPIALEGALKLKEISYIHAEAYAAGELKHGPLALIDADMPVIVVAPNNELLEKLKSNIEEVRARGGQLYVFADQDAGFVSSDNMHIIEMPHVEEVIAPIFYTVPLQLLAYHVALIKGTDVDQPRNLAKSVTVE

N[C@@H]1[C@@H](O)[C@H](O)[C@@H](COP(=O)(O)O)O[C@@H]1O [N-glucosamine-6-phosphate]
inhibition of N-glucosamine-6-phosphate synthase [1]: significantly inhibited | inhibition of N-glucosamine-6-phosphate synthase [2]: inhibited

N[C@H]1C(O)O[C@H](CO)[C@@H](O)[C@@H]1O (some centres unmarked) [N-glucosamine]
inhibition of N-glucosamine-6-phosphate synthase [1]: slightly inhibited

O=C(CO)[C@@H](O)[C@H](O)[C@H](O)COP(=O)(O)O [fructose-6-phosphate]
Km [3]: 2 mM

NC(=O)CC[C@H](N)C(=O)O [glutamine]
Km [3]: 0.4 mM

From patent US20020160459A1, “PROCESS FOR PRODUCTION OF N-GLUCOSAMINE” (priority 1999, published 2002)
